Results published in US5410052A, “Symmetrical and unsymmetrical polyalkylamine metal complexes for ligand extraction and generation” (The Regents of the University of California, priority 1990, dated 1995).
Where two headings read alike, the source gives them in different places.

Assays:
[1] = literature, Ref. 1, 2 or 4; cited from earlier work
[2] = set-up: key to Log K02 (symbol): *: Oxygen complex is unstable.; **: No oxygen complex observed; details: cobalt complex, literature, cited from earlier work; for Log K02: dimeric oxygen complex, Ref. 1 or 4
[3] = Cyclic voltammetry of Co(PAA)n+ carrier compounds; format: physicochemical
Protocol: Cyclic voltammentry experiments were performed under nitrogen or iar for the unoxygenated or oxygenated carrier compounds, respectively, in a cell having a platinum wire auxiliary electrode, a silver-silver chloride reference electrode, and suitable working electrode. The potential between the auxiliary and working electrodes was varied with a Princeton Applied Research (Princeton, N.J.) Scanning Potentiostate at 50 mV/s from a suitable initial with a suitable initial scan direction (Scan Dir.), depending on the electrochemical potentials if interest. All solutions contained 1 mM CoCl2, 1 mM or 1.5 mM PAA, and a supporting electrolyte, and were buffered to a suitable pH, usually about the initial working pH.
Cyclic voltammetry enables the estimation of anode (EPA) and cathode (EPC) half cell potentials, the cell potential ΔE=(EPA -EPC), and an approximate formal reaction potential […]. In addition, estimates of the rate of electron transfer to a particular electrode and electrochemical reversibility of the reaction can be obtained.

[4] = Potentiometric pH titration of polyalkylamines: protonation constants (basicity); format: physicochemical; details: 25°±0.1° C., ca. 1.5 mM PAA; Ref. 3 determined by applicants
Description: the equilibrium constants for successive protonations of the PAA compounds are defined by
KHi =[PAA(H^+)i ]/[PAA(H^+)i-1 ] [H^+ ](10)
Where spectrophotometric characterization of a particular cobalt carrier compound has proven satisfactory, both the polyalkylamine and the cobalt carrier compound are characterized by a set of potentiometric pH titrations to determine the basicity of the ligating atoms, the formation constants KML and KMLH, and the apparent oxygen binding equilibrium constants.
Potentiometric titrations are performed using a Fisher or Cole-Palmer pH meter in a sealed, jacketed glass cell equipped with glass and calomel electrodes and with provisions for performing measurements under oxygen-free conditions. The cell is kept at a constant temperature of 25°±0.1° C. by circulating water from a thermostated bath through the cell jacket. The electrodes and pH meter are standardized with commercially available standard buffer solutions (Fisher Scientific). The polyalkylamine ligands and cobalt carrier compounds were each titrated potentiometrically by incrementally adding standard potassium hydroxide solution and recording the pH of the solution after each addition of base. Titrations of the cobalt carrier compounds are carried out under prepurified nitrogen or argon; titrations of oxygenated carrier compounds are performed under oxygen treated with Ascarite to remove carbon dioxide.
All solutions contained ca. 1.5 mM PAA; for titrations of cobalt complexes, the solutions contained, in addition, 1.5 mM CoCl2.
Typical results obtained as outlined above from pH titrations of selected polyalkylamines, cobalt carrier compounds, and oxygen complexes of cobalt carrier compounds are graphically depicted in FIGS. 2, 3, and 4, and summarized in Table III. The values shown in Table III, defined by equations (6)-(8) and (10). above, were derived either by direct measurement from the titration curves obtained, or determined by the iterative best fit of the data to a computer program such as that described by Harris, et al., Inorganic Chemistry, vol. 17, p. 889, 890 (1978). Generally, although the latter values are considered to be more reliable, values obtained by either methods are approximately the same and sufficient for the present evaluation.

[5] = deox, 1.5 mM PAA, pH 9.0, 0.5M NaCl/0.1M Borate, glassy carbon, Einitial -0.3 V, scan +
[6] = ox, 1.5 mM PAA, pH 9.0, 0.5M NaCl/0.1M Borate, glassy carbon, Einitial -0.3 V, scan +
[7] = ox, 1.0 mM PAA, pH 12.0, 0.5M KCl/0.1M K2HPO4, glassy carbon, Einitial +0.19 V, scan -
[8] = deox, 1.5 mM PAA, pH 3.0, 0.5M KCl/0.1M K2HPO4, gold, Einitial -0.3 V, scan +
[9] = ox, 1.0 mM PAA, pH 9.0, 0.5M NaCl/0.1M Borate, gold, Einitial +0.12 V, scan +
[10] = deox, 1.0 mM PAA, pH 7.6, 0.5M NaCl/0.1M K2HPO4, gold, Einitial -0.3 V, scan +
[11] = ox, 1.0 mM PAA, pH 7.6, 0.5M KCl/0.1M K2HPO4, gold, Einitial +0.3 V, scan +
[12] = deox, 1.0 mM PAA, pH 5.93, 0.5M KCl/0.1M K2HPO4, glassy carbon, Einitial +0.1 V, scan +
[13] = ox, 1.0 mM PAA, pH 5.93, 0.5M KCl/0.1M K2HPO4, glassy carbon, Einitial +0.1 V, scan +

NCCNCCNCCNCCN [compound 33]
Log K1 [1]: 9.85 | Log K2 [1]: 9.27 | Log K3 [1]: 8.19 | Log K4 [1]: 5.08 | Log K5 [1]: 3.43 | Log K02 [2]: 15.83 | EPA [3, 5]: -0.33 V | EPC [3, 5]: -0.45 V | E° [3, 5]: -0.39 V | ΔE [3, 5]: 0.12 V | EPA [3, 6]: 0.7 V | EPC [3, 6]: -0.5 V | ΔE [3, 6]: 1.2 V

CN(CCCNCc1ccccn1)CCCNCc1ccccn1 [compound 76]
Log K1 [4]: 9.15 | Log K2 [4]: 7.20 | Log K3 [4]: 5.79 | Log K4 [4]: 3.40 | EPA [3, 7]: 0.25 V | EPC [3, 7]: -0.35 V | ΔE [3, 7]: 0.6 V

c1ccc(CNCCNCCNCc2ccccn2)nc1 [compound 62]
Log K1 [1]: 8.88 | Log K2 [1]: 7.04 | Log K3 [1]: 3.82 | Log K4 [1]: 1.44 | Log K1 [4]: 8.91 | Log K2 [4]: 6.95 | Log K3 [4]: 3.64 | Log K02 [2]: 11.4 | EPA [3, 8]: 0.0 V | EPC [3, 8]: -0.1 V | E° [3, 8]: -0.05 V | ΔE [3, 8]: 0.1 V | EPA [3, 9]: 0.75 V | EPC [3, 9]: -0.55 V | ΔE [3, 9]: 1.3 V

c1ccc(CNCCCNCCCNCc2ccccn2)nc1 [compound 64]
Log K1 [1]: 9.92 | Log K2 [1]: 7.63 | Log K3 [1]: 6.76 | Log K4 [1]: 1.79 | Log K1 [4]: 9.54 | Log K2 [4]: 7.44 | Log K3 [4]: 6.34 | Log K02 [2]: 7.7 | EPA [3, 10]: 0.4 V | EPC [3, 10]: -0.45 V | E° [3, 10]: -0.05 V | ΔE [3, 10]: 0.85 V | EPA [3, 11]: 0.08 V | EPC [3, 11]: -0.4 V | ΔE [3, 11]: 1.2 V

c1nc(CNCCNCCNCc2c[nH]cn2)c[nH]1 [compound 75]
Log K1 [1]: 9.22 | Log K2 [1]: 8.18 | Log K3 [1]: 4.91 | Log K4 [1]: 3.90 | Log K5 [1]: 2.92 | Log K1 [4]: 9.15 | Log K2 [4]: 8.03 | Log K3 [4]: 4.92 | Log K4 [4]: 3.91

c1nc(CNCCCNCCCNCc2c[nH]cn2)c[nH]1 [compound 74]
Log K1 [1]: 10.12 | Log K2 [1]: 8.62 | Log K3 [1]: 7.36 | Log K4 [1]: 4.51 | Log K5 [1]: 3.82 | Log K1 [4]: 9.75 | Log K2 [4]: 8.58 | Log K3 [4]: 7.2 | Log K4 [4]: 4.75 | Log K5 [4]: 3.75 | Log K02 [2]: 9.49

c1ccc(CNCCCNCCNCc2ccccn2)nc1 [compound 72]
Log K1 [4]: 8.6 | Log K2 [4]: 6.75 | Log K3 [4]: 4.76 | EPA [3, 12]: 0.03 V | EPC [3, 12]: 0.66 V | E° [3, 12]: -0.02 V | ΔE [3, 12]: 0.11 V | EPA [3, 13]: 0.66 V | EPC [3, 13]: -0.07 V | ΔE [3, 13]: 0.73 V

c1ccc(CNCc2cccc(CNCc3ccccn3)n2)nc1 [compound 21]
Log K1 [1]: 7.55 | Log K2 [1]: 6.86 | Log K3 [1]: 3.2 | Log K4 [1]: 2.9 | Log K1 [4]: 7.74 | Log K2 [4]: 6.69 | Log K3 [4]: 2.95 | Log K02 (symbol) ([2]; Ref. 2): *
